This is an account of results in PubChem BioAssay (NCI).

Test systems include NCI/ADR-RES ovarian; LOX IMVI melanoma; CCRF-CEM leukemia; A498 renal; HCT-116 colon; KM12 colon; HCT-15 colon; NCI-H460 lung.
Holding throughout (assay): NCI-60 cell line screen, 48 h

Each structure is given as a SMILES string. “And” between values parts separate entries of the source, which are not always exact repeats. Identical values can stand only once.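 Results reflect a 48-hour exposure of cells in 96-well plates to compound at five concentrations. The concentration for 50% growth inhibition is given as GI50. The concentration for full growth arrest is given as TGI.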

`C=CC[n+]1c(/C=C/C=C2\N(C)c3ccccc3C2(C)C)sc2ccc(OC)cc21`: the GI50 is 7.76 µM in the test on NCI/ADR-RES ovarian; 0.313 µM with LOX IMVI melanoma; 0.287 µM in the test with CCRF-CEM leukemia; 0.278 µM with A498 renal; 0.159 µM in the test on HCT-116 colon; 0.249 µM in the test with KM12 colon. Besides, the GI50 is 2.82 µM in the test with HCT-15 colon and 0.199 µM in the test with NCI-H460 lung. Also, the TGI with NCI/ADR-RES ovarian turned out to be 69.2 µM; in the test with LOX IMVI melanoma it was 15.1 µM; in the test with CCRF-CEM leukemia, 12.7 µM; with A498 renal it was 4.37 µM; in the test on HCT-116 colon, 11.9 µM; with KM12 colon it was 11.7 µM. In addition, the results for the TGI with HCT-15 colon and in the test on NCI-H460 lung were 16.4 µM and 12.1 µM, respectively.

Turning to `O=C(NC1CCN(Cc2ccccc2)CC1)c1cc(-c2ccncc2)nc2ccc(Cl)cc12`, the GI50 in the test on NCI/ADR-RES ovarian is 22.2 µM; with LOX IMVI melanoma, 12 µM; in the test with CCRF-CEM leukemia, 21.2 µM; in the test on HCT-116 colon, 9.64 µM; in the test on KM12 colon it was 24.1 µM; in the test on HCT-15 colon, 10.5 µM. Moreover, the GI50 with NCI-H460 lung is 11.4 µM. Also, the TGI was greater than 100 µM in the test with NCI/ADR-RES ovarian; 29.6 µM in the test on LOX IMVI melanoma; greater than 100 µM in the test with CCRF-CEM leukemia; 3.45 µM in the test with A498 renal; 33.9 µM in the test on HCT-116 colon; greater than 100 µM with KM12 colon. The TGI in the test on HCT-15 colon was greater than 48.2 µM; in the test with NCI-H460 lung, 33.7 µM.

In the case of `Cc1ccc([N+](=O)[O-])cc1NC(=O)Nc1cccc(F)c1`, the GI50 in the test on NCI/ADR-RES ovarian was 3.37 µM; in the test with LOX IMVI melanoma, 5.78 µM; with CCRF-CEM leukemia it was 3.96 µM; with A498 renal it was 1.61 µM; in the test with HCT-116 colon it was 3.53 µM; in the test with KM12 colon, 3.67 µM. The GI50 was 3.44 µM in the test on HCT-15 colon and 3.09 µM with NCI-H460 lung. Further, the TGI in the test on NCI/ADR-RES ovarian was greater than 100 µM; in the test on LOX IMVI melanoma, greater than 100 µM; in the test on CCRF-CEM leukemia, greater than 100 µM; with A498 renal, 9.76 µM; in the test on HCT-116 colon, greater than 100 µM; in the test on KM12 colon, 48.7 µM. In addition, the TGI in the test with HCT-15 colon was greater than 100 µM; in the test on NCI-H460 lung, 16.1 µM.

Take `O=C(O)CCNc1ccccc1C(=O)O`: the TGI in the test on NCI/ADR-RES ovarian, with LOX IMVI melanoma, with CCRF-CEM leukemia, with A498 renal, in the test with HCT-116 colon and in the test with KM12 colon was greater than 100 µM each time. In addition, the TGI in the test with HCT-15 colon and in the test with NCI-H460 lung was greater than 100 µM throughout.

As for `COc1ccc2oc(=O)cc(C(c3ccc[nH]3)c3ccc[nH]3)c2c1`, the GI50 with NCI/ADR-RES ovarian is 0.0651 µM; in the test with LOX IMVI melanoma it was 0.104 µM; in the test with CCRF-CEM leukemia, 0.105 µM; in the test with A498 renal, 0.104 µM; in the test on HCT-116 colon it was 0.328 µM; in the test with KM12 colon, 0.104 µM. The GI50 was 0.1 µM with HCT-15 colon and 0.107 µM in the test with NCI-H460 lung. Besides, the TGI stood at 5.91 µM in the test with NCI/ADR-RES ovarian; 7.57 µM with LOX IMVI melanoma; 29.9 µM in the test on CCRF-CEM leukemia; 0.437 µM in the test on A498 renal; 10.6 µM in the test on HCT-116 colon; 11.3 µM with KM12 colon. The TGI was 11.5 µM in the test on HCT-15 colon and 10.3 µM with NCI-H460 lung.

On to `Nc1ccc2c(c1)C(=O)C(=O)c1c-2nc2ccccn12`, for which the GI50 in the test on NCI/ADR-RES ovarian is 1.85 µM; in the test on LOX IMVI melanoma, 0.327 µM; with CCRF-CEM leukemia, 1.77 µM; in the test with A498 renal, 1.57 µM; with HCT-116 colon it was 1.04 µM; in the test with KM12 colon, 2.13 µM. The values for the GI50 with HCT-15 colon and with NCI-H460 lung were 0.427 µM and 0.561 µM, respectively. Moreover, the TGI was found to be 5.98 µM in the test with NCI/ADR-RES ovarian; 1.33 µM in the test with LOX IMVI melanoma; 5.27 µM in the test with CCRF-CEM leukemia; 3.37 µM in the test with A498 renal; 2.29 µM in the test on HCT-116 colon; 6.8 µM in the test with KM12 colon. In addition, the TGI with HCT-15 colon was 1.87 µM; in the test on NCI-H460 lung it was 3.12 µM.

Regarding `CCN1CCN(Cc2ccc(-c3cc4c(N[C@H](C)c5ccccc5)ncnc4[nH]3)cc2)CC1`, the GI50 in the test on NCI/ADR-RES ovarian is 4.69 µM and 4.78 µM; in the test on LOX IMVI melanoma, 1.51 µM and 1.24 µM; with CCRF-CEM leukemia, 2.41 µM and 3.23 µM; in the test with A498 renal, 0.947 µM and 0.35 µM; with HCT-116 colon it was 2.8 µM and 2.87 µM; in the test on KM12 colon, 3.84 µM and 3.5 µM. Besides, the GI50 in the test with HCT-15 colon is 2.56 µM and 2.39 µM; with NCI-H460 lung it was 5.55 µM and 6.86 µM. Also, the TGI in the test with NCI/ADR-RES ovarian was 29.9 µM and > 10 µM; in the test on LOX IMVI melanoma it was 3.06 µM and 2.78 µM; in the test with CCRF-CEM leukemia, 6.43 µM and > 10 µM; with A498 renal, 2.82 µM and 2.08 µM; in the test on HCT-116 colon, 14.4 µM and > 10 µM; in the test on KM12 colon, 14.4 µM and > 10 µM. Further, the TGI in the test with HCT-15 colon is 17.9 µM and > 10 µM; in the test with NCI-H460 lung it was 23.3 µM and > 10 µM.

With `C[C@@H]1COCCN1c1cc(C2([S@](C)(=N)=O)CC2)nc(-c2ccnc3[nH]ccc23)n1`, the GI50 in the test on NCI/ADR-RES ovarian is 26.2 µM and > 10 µM; with LOX IMVI melanoma, 0.903 µM and 2.75 µM; in the test on CCRF-CEM leukemia, 1.21 µM and 1.11 µM; in the test on A498 renal it was 0.43 µM and 1.27 µM; in the test with HCT-116 colon, 4.67 µM and 4.53 µM; in the test on KM12 colon, 4.21 µM and 3.95 µM. For the same compound, the GI50 in the test with HCT-15 colon was 4.34 µM and 4.51 µM; in the test with NCI-H460 lung, 1.04 µM and 2.1 µM. In addition, the TGI in the test on NCI/ADR-RES ovarian was greater than 100 µM; with LOX IMVI melanoma it was 12.7 µM and > 10 µM; with CCRF-CEM leukemia it was greater than 29 µM; in the test on A498 renal it was 3.71 µM and 8.78 µM; in the test with HCT-116 colon, greater than 87.5 µM; with KM12 colon it was greater than 100 µM. Also, the TGI in the test with HCT-15 colon and in the test on NCI-H460 lung was greater than 100 µM in each case.

As to `Nc1c(C(=O)c2cccc(CCCN3CCOCC3)c2)cnn1-c1ccc(F)cc1`, the GI50 in the test with NCI/ADR-RES ovarian was greater than 25 µM; in the test on LOX IMVI melanoma, greater than 25 µM; in the test on CCRF-CEM leukemia it was greater than 25 µM; with A498 renal, greater than 17.6 µM; in the test on HCT-116 colon it was greater than 25 µM; with KM12 colon, greater than 25 µM. In addition, the GI50 with HCT-15 colon and with NCI-H460 lung was greater than 25 µM throughout. Further, the TGI in the test on NCI/ADR-RES ovarian, in the test with LOX IMVI melanoma, with CCRF-CEM leukemia, in the test on A498 renal, in the test on HCT-116 colon and with KM12 colon was greater than 25 µM throughout. The TGI with HCT-15 colon and with NCI-H460 lung was greater than 25 µM each time.
